Patent US20130202724A1, “SOYBEAN EXTRACTS FOR THE TREATMENT OF HEPATIC DISORDERS” (Hadasit Medical Research Services and Development Ltd., priority 2010, published 2013)

Tests used:
[1] = tested on: ConA-challenged C57BL-6 mice; test: ConA-induced hepatotoxicity with soybean-derived extracts (Example 6); assay type: in vivo; settings: combinations 1:1, especially 0.3 and 3 μg per mouse
Experimental: Either two (Example 1 (A)) or three (Example 1 (B)) groups of mice (10 mice per group) were studied. ConA was dissolved in 50 mM Tris (pH 7), 150 mM NaCl, and 4 mM CaCl2. To induce autoimmune hepatitis, mice were injected i.v. with 20 mg/kg ConA. Control mice were injected with PBS. A specified dosage of […] or vehicle was administered to the mice orally […] before (Example 1 (A)) or 30 min after (Example 1 (B)) they had received an injection of ConA. The mice were sacrificed 16 h (Example 1 (A)) or 17 h (Example 1 (B)) later. For Example 4 (ConA challenge in different […] extracts), six groups of 4-5 11-12 weeks old male C57BL/6 mice were treated per os for three days with extracts as show in Table 4. The mice were injected i.v. (tail vein) 500 μg of ConA, (20 mg/kg body weight) and sacrificed 14 h later. After sacrifice measurements of serum IFN-γ was carried out using ELISA. […] Serum ALT and AST activities were determined and serum levels of IFN-γ and TNF-α were measured. […] Serum levels of IFN-γ, TNF-α, and IL-6 were determined by “sandwich” ELISA using commercial kits according to the manufacturer's instructions. […] Serum ALT and AST activities were determined and serum levels of IFN-γ and TNF-α were measured.

HFD-fed mice = test: HFD obese mouse model with soybean extracts M1, OS and combinations (Example 7); assay type: in vivo
Experimental: Five mice per experimental group were fed HFD diet, comprising 42% calories from fat. The mice were administered the indicated extracts per os 3 times a week for three months, and then sacrificed. The mice weight, fasting glucose levels, ALT, serum triglycerides (TGs) and cholesterol were determined every 2 weeks. Glucose Tolerance Test was performed after 4 and 12 weeks. On sacrifice day, serum and a liver biopsy were collected for determination of serum insulin levels, liver TG and for H&E histological analysis.
After sacrifice, measurements of serum ALT and AST activities were carried out, and serum levels of IFN-γ, TNF-α and insulin were determined.
TGs were extracted from aliquots of snap-frozen livers using a modification of the Folch method. Hepatic TG content was assayed spectrophotometrically using a GPO-Trinder kit and was normalized to the protein content in the homogenate.
Plasma TG and total cholesterol were measured by a clinical chemistry analyzer, the Reflovet Plus machine.
Fasting glucose levels were measured after overnight (12 h) fasting. Serum glucose measurements were performed on tail-vein blood by a standard glucometer.
Mice underwent a GTT after overnight fasting. Glucose was administered orally (1.25 g/kg body weight). Serum glucose measurements were performed on tail-vein blood every 15 min for 3 h. Glucose levels were measured by a standard glucometer.
Serum insulin levels were determined using a commercially available ELISA kit (Mercodia), according to the manufacturer's instructions. Serum was collected from euthanized mice on the day of sacrifice (after 12 h fasting) and kept in −80° C. until analysis.
Serum levels of IFN-γ, TNF-α, and IL-6 were determined by “sandwich” ELISA using commercial kits according to the manufacturer's instructions.
Flow cytometry was performed following splenocyte and hepatic lymphocyte isolation using 1×10^6 lymphocytes in 100 μl PBS with 0.1% BSA. For surface staining, cells were incubated with fluorochrome-conjugated antibodies to the indicated cell surface markers at the recommended dilutions or with isotype control antibodies for 30 minutes at 4° C. The following cell surface anti-mouse antibodies were used: CD4/CD3-Pacific Blue, CD25/NK1.1-PE and CD8-FITC. Cells were then washed in PBS containing 1% BSA and fixed with fixation buffer for another 50 minutes. For intracellular staining of Foxp3, fixed cells were permeabilized with Foxp3 staining buffer. Cells were then stained with PE-Cy7-conjugated antibodies to Foxp3, washed twice and resuspended in 250 μl of PBS containing 1% BSA and kept at 4° C. One million stained cells in 250 μl of PBS containing 1% BSA were subsequently analyzed using a FACS LSR II instrument with FCS express V.3 software. Only live cells were counted, and background fluorescence from non-antibody-treated lymphocytes was subtracted.
A HFD obese mouse model was therefore used to assess the hepatoprotective action of the soybean extracts M1, OS and their combinations. Young (6-7 weeks old) male C57BL/6 mice (5 mice per experimental group) were fed HFD diet ad libitum for 12 weeks. The mice were administered the indicated soybean extracts or combinations per os 3 times a week for the duration of the experiment. After 12 weeks, the mice were sacrificed. During the experiment the mice weight, fasting glucose level, ALT, serum triglycerides (TGs) and cholesterol were measured every 2 weeks, and glucose tolerance test was carried out after the fourth and twelfth weeks. On sacrifice day, serum samples and livers were collected. Serum TNF-α and insulin were determined, hepatic TG were measured and a liver section stained with H&E was prepared and analyzed. A FACS analysis of splenic T regulatory and NKT cells was also performed.

glucosylceramide [GC]
hepatic protection (liver enzymes and serum IFN-γ and TNF-α), summary [1]: significant decrease
effectiveness over all tested parameters, summary (HFD-fed mice; HFD model, combinations 1:1, 0.3 μg and 3 μg per mouse): effective but not in all tested parameters
fasting glucose levels (HFD-fed mice; M1/OS mixtures (both doses), GC 25 μg, vs control mice): significantly lower
GTT results (HFD-fed mice; after 12 weeks in HFD, vs control and OS-treated mice): marked improvement
liver lipid accumulation (H&E stained liver sections) (HFD-fed mice; both M1/OS mixture doses (0.3 μg each and 3 μg each), GC 25 μg): striking improvement
hepatic TG levels (HFD-fed mice; single agents (M1 3 μg, GC 25 μg), week 12, vs control mice): no clear effect
fasting insulin levels (HFD-fed mice; single agents (OS 3 μg, GC 25 μg, M1 3 μg), week 12): lowest
